Target: T1, Human complement C1s enzyme (Homo sapiens, UniProt P09871)
T1 construct: purified from human serum, Complement Technology, Inc; purchased Complement Technology, Inc; host or cells: human serum
T1 sequence (P09871 438-688 limits assumed): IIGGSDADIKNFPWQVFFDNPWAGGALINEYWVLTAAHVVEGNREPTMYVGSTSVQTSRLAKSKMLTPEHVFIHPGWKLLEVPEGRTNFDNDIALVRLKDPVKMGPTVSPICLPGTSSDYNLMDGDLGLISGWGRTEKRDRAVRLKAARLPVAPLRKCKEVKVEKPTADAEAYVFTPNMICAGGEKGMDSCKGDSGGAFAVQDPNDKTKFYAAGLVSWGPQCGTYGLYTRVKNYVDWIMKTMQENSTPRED
T1 sequence (P09871 16-437 partner limits assumed): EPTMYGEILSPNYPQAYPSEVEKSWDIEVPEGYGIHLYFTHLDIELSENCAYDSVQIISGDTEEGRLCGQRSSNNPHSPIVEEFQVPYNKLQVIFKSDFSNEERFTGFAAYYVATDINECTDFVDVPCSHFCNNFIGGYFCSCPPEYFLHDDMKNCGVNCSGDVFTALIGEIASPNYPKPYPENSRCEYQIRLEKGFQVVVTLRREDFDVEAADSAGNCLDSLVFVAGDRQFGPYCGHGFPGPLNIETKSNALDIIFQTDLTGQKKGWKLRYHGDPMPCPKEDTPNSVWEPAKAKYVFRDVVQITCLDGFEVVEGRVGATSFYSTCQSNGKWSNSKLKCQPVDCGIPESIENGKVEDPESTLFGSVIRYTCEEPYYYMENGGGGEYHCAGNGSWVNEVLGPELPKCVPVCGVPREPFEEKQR
Test: Human C1s Enzyme Assay
Type: biochemical
Conditions: human C1s 1.16 nM, 5 min preincubation, substrate Z-L-Lys-SBzl 100 μM, A405; read-out: C1s Protease Activity
Summary of the method: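 IC50 values were fitted by nonlinear regression to rates measured as A405 every 30 s for 30 min. The thioester substrate Z-L-Lys-SBzl and Ellman's reagent were each at 100 μM. Serum-derived C1s at 1.16 nM final had 5 min of room-temperature preincubation with compound (pH 7.5 Tris buffer, 1 M NaCl).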

Row | IC50 | Compound
1 | < 100 nM | C[C@@H](NC(=O)[C@@H]1C[C@](F)(COCCCCCC(=O)O)CN1C(=O)CNC(=O)CCCOc1ccccc1)c1cc(C(=N)N)cs1 [Compound 234, 6-(((3R,5S)-5-(((R)-1-(4-carbamimidoylthiophen-2-yl)ethyl)carbamoyl)-3-fluoro-1-((4-phenoxybutanoyl)glycyl)pyrrolidin-3-yl)methoxy)hexanoic acid]
2 | > 1000 nM | C[C@@]12C[C@@H]1N(C(=O)CNC(=O)c1ccc(Oc3ccccc3)cc1)[C@H](C(=O)NCc1cc(C(=N)N)c(C(F)(F)F)s1)C2 [Compound 248, (1S,3S,5S)-N-((4-carbamimidoyl-5-(trifluoromethyl)thiophen-2-yl)methyl)-5-methyl-2-((4-phenoxybenzoyl)glycyl)-2-azabicyclo[3.1.0]hexane-3-carboxamide]
3 | 100 to 1000 nM | C[C@@]12C[C@@H]1N(C(=O)CNC(=O)c1ccc(Oc3ccc(C(F)(F)F)cc3)cc1)[C@H](C(=O)NCc1cc(C(=N)N)cs1)C2 [Compound 92, (1S,3S,5S)-N-((4-carbamimidoylthiophen-2-yl)methyl)-5-methyl-2-((4-(4-(trifluoro-methyl)phenoxy)benzoyl)glycyl)-2-azabicyclo[3.1.0]hexane-3-carboxamide]
4 | < 100 nM | N=C(N)c1ccc(CNC(=O)[C@@H]2CC3(CN2C(=O)CNC(=O)c2ccc(Oc4ccccc4)cc2)OCCO3)cn1 [Compound 71, (S)-N-((6-carbamimidoylpyridin-3-yl)methyl)-7-((4-phenoxybenzoyl)glycyl)-1,4-dioxa-7-azaspiro[4.4]nonane-8-carboxamide]
5 | > 1000 nM | N=C(N)c1csc([C@H](NC(=O)[C@@H]2CC3(CN2C(=O)CNC(=O)CCCOc2ccccc2)OCCO3)C2CC2)c1 [Compound 177, (S)-N-((R)-(4-carbamimidoylthiophen-2-yl)(cyclopropyl)methyl)-7-((4-phenoxybutanoyl)glycyl)-1,4-dioxa-7-azaspiro[4.4]nonane-8-carboxamide]
6 | > 1000 nM | N=C(N)c1csc([C@@H](NC(=O)[C@@H]2CC3(CN2C(=O)CNC(=O)CCCOc2ccccc2)OCCO3)c2ccccc2)c1 [Compound 217, (S)-N-((S)-(4-carbamimidoylthiophen-2-yl)(phenyl)methyl)-7-((4-phenoxybutanoyl)glycyl)-1,4-dioxa-7-azaspiro[4.4]nonane-8-carboxamide]
7 | < 100 nM | C[C@@H](NC(=O)[C@@H]1CC2(CN1C(=O)CNC(=O)c1ccc(C(F)(F)F)cc1)OCCO2)c1cc(C(=N)N)cs1 [Compound 263, (S)-N-((R)-1-(4-carbamimidoylthiophen-2-yl)ethyl)-7-((4-(trifluoromethyl)benzoyl)glycyl)-1,4-dioxa-7-azaspiro[4.4]nonane-8-carboxamide]
8 | < 100 nM | N=C(N)c1csc(CNC(=O)C2CC3(CCC3)CN2C(=O)CNC(=O)CCCOc2ccccc2)c1 (centres unmarked) [Compound 261, N-((4-carbamimidoylthiophen-2-yl)methyl)-6-((4-phenoxybutanoyl)glycyl)-6-azaspiro[3.4]octane-7-carboxamide]

More lines, now with the values behind:

Row | Compound | IC50
9 | N=C(N)c1csc(CNC(=O)[C@@H]2C[C@](F)(CF)CN2C(=O)CNC(=O)CCCOc2ccccc2)c1 [Compound 33, (2S,4R)-N-((4-carbamimidoylthiophen-2-yl)methyl)-4-fluoro-4-(fluoromethyl)-1-((4-phenoxybutanoyl)glycyl)pyrrolidine-2-carboxamide] | < 100 nM
10 | C[C@@]12C[C@@H]1N(C(=O)CNC(=O)c1ccc(Oc3ccccc3)cc1)[C@H](C(=O)OCc1cc(C(=N)N)cs1)C2 [Compound 89, (1S,3S,5S)-(4-carbamimidoylthiophen-2-yl)methyl 5-methyl-2-((4-phenoxybenzoyl)glycyl)-2-azabicyclo[3.1.0]hexane-3-carboxylate] | < 100 nM
11 | C[C@@]12C[C@@H]1N(C(=O)CNC(=O)c1ccc(Oc3ccccc3)cc1)[C@H](C(=O)NCc1ncc(C(=N)N)s1)C2 [Compound 235, (1S,3S,5S)-N-((5-carbamimidoylthiazol-2-yl)methyl)-5-methyl-2-((4-phenoxybenzoyl)glycyl)-2-azabicyclo[3.1.0]hexane-3-carboxamide] | < 100 nM
12 | N=C(N)c1csc(CNC(=O)[C@@H]2[C@H](O)[C@@H](F)CN2C(=O)CNC(=O)CCCOc2ccccc2)c1 [Compound 128, (2S,3S,4S)-N-((4-carbamimidoylthiophen-2-yl)methyl)-4-fluoro-3-hydroxy-1-((4-phenoxybutanoyl)glycyl)pyrrolidine-2-carboxamide] | < 100 nM
13 | C[C@@]12C[C@@H]1N(C(=O)CN1Cc3ccc(Oc4ccccc4)cc3C1=O)[C@H](C(=O)NCc1cc(C(=N)N)cs1)C2 [Compound 144, (1S,3S,5S)-N-[(4-carbamimidoylthiophen-2-yl)methyl]-5-methyl-2-[2-(1-oxo-6-phenoxy-3H-isoindol-2-yl)acetyl]-2-azabicyclo[3.1.0]hexane-3-carboxamide] | < 100 nM
14 | N=C(N)c1csc(CNC(=O)[C@@H]2C[C@@H](N3CCCC3)CN2C(=O)CNC(=O)c2ccc(Oc3ccccc3)cc2)c1 [Compound 48, (3′R,5'S)-N-((4-carbamimidoylthiophen-2-yl)methyl)-1′-((4-phenoxybenzoyl)glycyl)-[1,3′-bipyrrolidine]-5′-carboxamide] | < 100 nM
15 | C[C@@]12C[C@@H]1N(C(=O)CNC(=O)c1ccc(Oc3ccccc3)cc1)[C@H](C(=O)NCc1nnc(C(=N)N)o1)C2 [Compound 201, (1S,3S,5S)-N-((5-carbamimidoyl-1,3,4-oxadiazol-2-yl)methyl)-5-methyl-2-((4-phenoxybenzoyl)glycyl)-2-azabicyclo[3.1.0]hexane-3-carboxamide] | > 1000 nM
16 | CN(C)C[C@@]1(F)C[C@@H](C(=O)NCc2cc(C(=N)N)cs2)N(C(=O)CNC(=O)CCCOc2ccccc2)C1 [Compound 129, (2S,4S)-N-[(4-carbamimidoylthiophen-2-yl)methyl]-4-[(dimethylamino)methyl]-4-fluoro-1-[2-(4-phenoxybutanamido)acetyl]pyrrolidine-2-carboxamide] | < 100 nM
17 | C[C@@H](NC(=O)[C@@H]1C[C@]2(COCC(=O)O)C[C@@H]2N1C(=O)CNC(=O)CCCOc1ccccc1)c1cc(C(=N)N)cs1 [Compound 148, 2-(((1S,3S,5R)-3-(((R)-1-(4-carbamimidoylthiophen-2-yl)ethyl)carbamoyl)-2-((4-phenoxybutanoyl)glycyl)-2-azabicyclo[3.1.0]hexan-5-yl)methoxy)acetic acid] | < 100 nM
18 | C[C@@]12C[C@@H]1N(C(=O)CNC(=O)c1cc3cc(Oc4ccccc4)ccc3o1)[C@H](C(=O)NCc1cc(C(=N)N)cs1)C2 [Compound 132, (1S,3S,5S)-N-((4-carbamimidoylthiophen-2-yl)methyl)-5-methyl-2-((5-phenoxybenzofuran-2-carbonyl)glycyl)-2-azabicyclo[3.1.0]hexane-3-carboxamide] | < 100 nM
19 | C[C@@H](NC(=O)[C@@H]1C[C@@]23COCCC/C=C/CCCCCCCCC(=O)N[C@@H](CCOc4ccccc4)C(=O)NCC(=O)N1[C@H]2C3)c1cc(C(=N)N)cs1 [Compound 250, (1R,19S,25S,28S,E)-N-((R)-1-(4-carbamimidoylthiophen-2-yl)ethyl)-17,20,23-trioxo-19-(2-phenoxyethyl)-3-oxa-18,21,24-triazatricyclo[22.2.2.0^1,25]octacos-7-ene-28-carboxamide] | < 100 nM
20 | C[C@@]12C[C@@H]1N(C(=O)CNC1(c3ccc(Oc4ccccc4)cc3)COC1)[C@H](C(=O)NCc1cc(C(=N)N)cs1)C2 [Compound 249, (1S,3S,5S)-N-[(4-carbamimidoylthiophen-2-yl)methyl]-5-methyl-2-(2-{[3-(4-phenoxyphenyl)oxetan-3-yl]amino}acetyl)-2-azabicyclo[3.1.0]hexane-3-carboxamide] | < 100 nM
21 | N=C(N)c1csc(NC(=O)C[C@@H]2CCCN2C(=O)CNC(=O)c2ccc(Oc3ccccc3)cc2)c1 [Compound 40, N-{2-[(2S)-2-{[(4-carbamimidoylthiophen-2-yl)carbamoyl]methyl}pyrrolidin-1-yl]-2-oxoethyl}-4-phenoxybenzamide] | > 1000 nM
22 | N=C(N)c1csc(CNC(=O)[C@@H]2C[C@](F)(CN)CN2C(=O)CNC(=O)CCCOc2ccccc2)c1 [Compound 109, (2S,4S)-4-(aminomethyl)-N-((4-carbamimidoylthiophen-2-yl)methyl)-4-fluoro-1-((4-phenoxybutanoyl)glycyl)pyrrolidine-2-carboxamide] | < 100 nM
23 | N=C(N)c1csc(CNC(=O)[C@@H]2C[C@]3(CN4CCOCC4)C[C@@H]3N2C(=O)CNC(=O)CCCOc2ccccc2)c1 [Compound 135, (1S,3S,5S)-N-((4-carbamimidoylthiophen-2-yl)methyl)-5-(morpholinomethyl)-2-((4-phenoxybutanoyl)glycyl)-2-azabicyclo[3.1.0]hexane-3-carboxamide] | < 100 nM
